Experimental data from PubChem BioAssay AID1996.
In brackets after ≈: the same amount, converted by molar mass.

Conditions: buffer; pH 7.4; 200.0 µM

Row | Structure (SMILES) | solubility kinetic [µg/mL]
1 | COCc1nnc(NC(=O)CCS(=O)(=O)c2ccccc2)s1 | > 51.2
2 | Cc1ccc(C(=O)NCC(=O)Nc2ccc3c(c2)CCC3)cc1 | 3 (≈ 9.73 µM)
3 | O=C(Nc1nc2ccccc2[nH]1)c1ccc(OC(F)F)cc1 | 2.4 (≈ 7.91 µM)
4 | O=C(O)c1[nH]c2ccc([N+](=O)[O-])cc2c1-c1ccccc1 | > 42.3
5 | COc1ccc(CCC(C)NCc2ccc(C(F)(F)F)cc2)cc1 (stereo not given) | 30.5 (≈ 90.4 µM)
6 | Cc1cc(=O)oc2cc(OCC(=O)NC3CCCCC3)ccc12 | 7.5 (≈ 23.8 µM)
7 | COc1ccc(C2NC(=O)CCC2[N+](=O)[O-])c(OC)c1OC (stereo not given) | > 46.5
8 | CC(C)(C)CN1CCN(CCCc2ccccc2)C(CCO)C1 (stereo not given) | 43.5 (≈ 137 µM)
9 | O=C(CS(=O)(=O)c1ccccc1)NC1CCCCC1 | > 42.2
10 | CN(C)Cc1cc2ccccc2c2c1COC2 | 31.5 (≈ 139 µM)
11 | CCOC(=O)C1CCCN(CC(O)COCc2ccccc2OC)C1 (stereo not given) | > 52.7
12 | Cc1ccc(S(=O)(=O)N2CC(C)N(S(C)(=O)=O)C2)cc1 (stereo not given) | > 47.8
13 | CNCCCC12CCC(c3ccccc31)c1ccccc12 | 38.6 (≈ 139 µM)
14 | Cc1nc([N+](=O)[O-])cn1CC(O)c1ccc(-c2ccccc2)cc1 (stereo not given) | 17.1 (≈ 52.9 µM)
15 | COC(=O)C1=C(C)N(Cc2ccc(OC)cc2)C(=O)/C1=C\c1ccco1 | 7.7 (≈ 21.8 µM)
16 | COc1cc2cc(-c3ccc(OC)c(OC)c3C)nc(N)c2cc1OC | 46.8 (≈ 132 µM)
17 | O=C(C#Cc1ccccc1)Nc1ccccc1F | 25.4 (≈ 106 µM)
18 | O=C(O)COc1ccc(Br)cc1/C=N\Nc1ccccn1 | > 52.5
19 | Cc1ccc(NC2=NCCCS2)cc1Cl | 28.4 (≈ 118 µM)
20 | CC(=O)Nc1ccc(S(=O)(=O)NCCC(=O)Nc2ncccc2C)cc1 | > 56.5
21 | CCOC(=O)Cn1cnc2scc(-c3ccccc3)c2c1=O | > 47.2
22 | O=C1/C(=C\c2ccsc2)N2CCC1CC2 | 21.3 (≈ 97.1 µM)
23 | Cc1cccc2sc(N(CCN(C)C)C(=O)c3ccc4ccccc4c3)nc12.Cl | 0.4
24 | CCOC(=O)c1ccc(S(=O)(=O)N2CCN(C/C=C/c3ccccc3)CC2)cc1 | 2.8 (≈ 6.75 µM)

Row | Structure (SMILES) | solubility kinetic [µg/mL]
25 | COc1cc(NC(=O)C2CCN(c3cnccn3)CC2)cc(OC)c1 | 47.1 (≈ 138 µM)
26 | CN(C)S(=O)(=O)c1cc(NC(=O)COC(=O)CC2Sc3ccccc3NC2=O)ccc1Cl (stereo not given) | 12.2 (≈ 24.5 µM)
27 | Cc1csc(NC(=O)CCCc2cccs2)n1 | 28.2 (≈ 106 µM)
28 | O=C(NC1CCCN(CCc2ccccc2)C1)c1c[nH]c2ccccc12 (stereo not given) | 49.3 (≈ 142 µM)
29 | COC(=O)c1cc(OC)c(OC)cc1NC(=O)Nc1ccccc1F | 2.4 (≈ 6.89 µM)
30 | CCOC(=O)C1=C(C)NC(C)=C(C(=O)OCC)C1C(=O)OCC(=O)N1CCOCC1 | > 63.7
31 | COc1ccc(OCCC(=O)OCC(=O)Nc2cccc(S(=O)(=O)N3CCCCC3)c2)cc1 | 30.5 (≈ 64 µM)
32 | NC(=O)c1cc2cc(Cc3ccccc3Cl)ccc2oc1=O | 1.2 (≈ 3.82 µM)
33 | O=S(=O)(c1ccc(=S)[nH]c1)N1CCOCC1 | 21.6 (≈ 83 µM)
34 | Cc1nc2ccc(NC(=S)N3CCOCC3)cc2nc1C | 39.3 (≈ 130 µM)
35 | Nc1c(N(CCCO)C(=O)C2CCCCC2)c(=O)[nH]c(=O)n1Cc1ccccc1 | > 60.1
36 | O=C(CC(=O)Nc1ccc(F)cc1)Nc1ccc(F)cc1 | 3.1 (≈ 10.7 µM)
37 | O=C1CSC(c2cccc([N+](=O)[O-])c2)N1C1CC2CCC1C2 (stereo not given) | 11.2 (≈ 35.2 µM)
38 | Nc1nc2c([N+](=O)[O-])cccc2s1 | 23 (≈ 118 µM)
39 | O=C(COc1ccc(Nc2ccccc2)cc1)Nc1ccncc1 | 9.2 (≈ 28.8 µM)
40 | Cc1ccc(NC(=O)C2C3CCC(O3)C2C(=O)O)cc1Cl (stereo not given) | 27.8 (≈ 89.8 µM)
41 | OCCCc1cn(Cc2ccccc2)c2ccccc12 | 22.9 (≈ 86.3 µM)
42 | O=C(Nc1cccnc1)OC1CCCC1 | 29.5 (≈ 143 µM)
43 | Cc1cc(Oc2ccc(OCC(N)=O)nn2)nc(Cl)n1 | > 44.4
44 | O=C(c1ccc(Cl)cc1Cl)N1CCc2ccccc21 | 13.9 (≈ 47.6 µM)
45 | CSc1nc2ccc(Br)cc2[nH]1 | 35.7 (≈ 147 µM)
46 | CCC1(c2ccccc2)C(=O)NCNC1=O | > 32.7
47 | Cc1cc(C)nc(N2CCCC(C(=O)Nc3cccc(Cl)c3)C2)n1 (stereo not given) | < 0.2
48 | CN1CCCN(C(=O)CSc2ccccc2)CC1 | 39.3 (≈ 149 µM)

Row | Structure (SMILES) | solubility kinetic [µg/mL]
49 | O=C(COC(=O)c1ccccn1)NCCc1ccc(Cl)cc1 | > 47.8
50 | CCSc1nnc(NC(=O)CN2C(=O)NC3(CCCC3)C2=O)s1 | > 53.3
51 | CN(Cc1ccccc1)C(=O)COc1cc(Cl)ccc1Cl | 24.1 (≈ 74.3 µM)
52 | Cc1c(C(=O)OCC(=O)N2CCCCC2C)oc2ccccc12 (stereo not given) | > 47.3
53 | O=C(NC1CCCCC1)C(=O)c1c[nH]c2ccccc12 | 1.1 (≈ 4.07 µM)
54 | CC(C)NC(=O)c1cccc2c1-c1ccccc1C2=O | 13.3 (≈ 50.1 µM)
55 | CN(Cc1ccccc1)C(=O)COC(=O)COc1ccc(Cl)cc1 | 2.9 (≈ 8.34 µM)
56 | CN1CCN(c2ccc(CNS(=O)(=O)c3cccc(F)c3)cc2)CC1 | 6.7 (≈ 18.4 µM)
57 | O=C(CCS(=O)(=O)c1ccccc1)Nc1ncc([N+](=O)[O-])s1 | 29.2 (≈ 85.5 µM)
58 | Cc1ccc(C(=O)C2CCN(S(=O)(=O)c3c(C)noc3C)CC2)cc1 | 13.6 (≈ 37.5 µM)
59 | O=C(Nc1ccc(F)cc1)Oc1ccccc1N1CCOCC1 | 8.1 (≈ 25.6 µM)
60 | COc1cc(OC)cc(C(=O)O/N=C(\N)c2cccc(C)c2)c1 | 6.2 (≈ 19.7 µM)
61 | CC(C)(C)N1CC(C(=O)Nc2ccc(C#N)cc2)CC1=O (stereo not given) | 40.2 (≈ 141 µM)
62 | CC(=O)NCCC(=O)Nc1nc(-c2ccc3c(c2)OCCO3)cs1 | 13.6 (≈ 39.1 µM)
63 | CC1CN(C(=O)COC(=O)Cc2c(Cl)cccc2Cl)CC(C)O1 (stereo not given) | > 54
64 | Cc1ccccc1C(=O)c1c[nH]c(C(=O)N=CN(C)C)c1 | > 42.5
65 | COC(=O)c1cc(NC(=O)c2cccc(F)c2)cc(C(=O)OC)c1 | 0.7 (≈ 2.11 µM)
66 | Cc1ccc(-n2c(C)nc3ccsc3c2=O)cc1 | > 38.4
67 | COc1ccc(C(=O)OCC(=O)NC(=O)NC(C)C)cc1OC | > 48.6
68 | Cc1ccc(NC(=O)CCc2nc3ccccc3s2)c(O)c1 | 8.9 (≈ 28.5 µM)
69 | COc1ccc2[nH]c3c(=O)n(Cc4ccncc4)cnc3c2c1 | 7.3 (≈ 23.8 µM)
70 | Cc1ccc(N2CC(=O)N(CC(=O)O)C2=O)cc1 | > 37.2
71 | CCC(=O)N(Cc1cc2ccccc2[nH]c1=O)c1ccc(OC)cc1 | > 50.5
72 | CN1CCCN(C(=O)c2ccccc2Cl)CC1 | > 37.9

Row | Structure (SMILES) | solubility kinetic [µg/mL]
73 | CN(C)c1ccc(SC#N)cc1 | 4.2 (≈ 23.6 µM)
74 | CC1(c2ccccc2)NC(=O)N(CC(=O)N2CC(=O)Nc3ccccc32)C1=O (stereo not given) | 23.2 (≈ 61.3 µM)
75 | CC(C(=O)N1CCN(c2ccccc2F)CC1)c1ccc([N+](=O)[O-])cc1 (stereo not given) | 38.8 (≈ 109 µM)
76 | Cc1cc(C)n2cc(CSc3ccc(Cl)cc3)nc2n1 | > 45.6
77 | O=C(Oc1ccc2c(c1)O/C(=C\c1ccncc1)C2=O)c1cccs1 | 2.2 (≈ 6.3 µM)
78 | CCc1nonc1NC(=O)c1oc2cc(C)c(Cl)cc2c1C | 0.5 (≈ 1.56 µM)
79 | O=C1NCCO1 | > 13.1
80 | CCC(C)[C@H](NC(=O)NCc1cccnc1)C(=O)OC (stereo not given in full) | 41.5 (≈ 149 µM)
81 | COc1ccc2cc(C3(C)NC(=O)N(CC(=O)N4CCCCC4)C3=O)ccc2c1 (stereo not given) | 14.6 (≈ 36.9 µM)
82 | O=C1CC(=O)N(Cc2ccccc2)C(=S)N1 | > 35.1
83 | CC(=O)N1Cc2[nH]c3ccccc3c2CC1C(=O)O (stereo not given) | > 38.7
84 | CC1CN(c2ccccc2)c2nc3c(c(=O)[nH]c(=O)n3C)n2C1 (stereo not given) | > 46.7
85 | CC(=O)Nc1c(-c2ccc(Cl)cc2)c(=O)c2ccccc2n1C | 14.8 (≈ 45.3 µM)
86 | Br.CC1CN2C(c3ccc(Cl)cc3)=CSC2=N1 (stereo not given) | > 49.7
87 | CCOc1cc(C2NC(=O)c3ccccc3O2)ccc1OC(C)C (stereo not given) | 14.1 (≈ 43.1 µM)
88 | Cc1ccc(OC(=O)c2cncc(Br)c2)c(C)c1 | 6.8 (≈ 22.2 µM)
89 | COCc1cc(=O)[nH]c(SC)n1 | > 27.9
90 | COc1ccc(CCC(C)NCc2ccc(Cl)c(Cl)c2)cc1 (stereo not given) | 17.3 (≈ 51.1 µM)
91 | CCN(CCO)C(=O)c1ccc2oc(Cc3ccc(Cl)cc3)nc2c1 | 41.5 (≈ 116 µM)
92 | C=CCON/C(CCC)=C1\C(=O)C(C(=O)OC)C(C)(C)CC1=NC (stereo not given) | 40.4 (≈ 120 µM)
93 | CC(=O)Nc1ccccc1C(F)(F)F | 5.5 (≈ 27.1 µM)
94 | Cc1noc(C)c1C(=O)Nc1nc(-c2ccc(F)cc2)cs1 | 10.3 (≈ 32.5 µM)
95 | CC1CN(C(=O)CNC(=O)COc2ccccc2)CC(C)O1 (stereo not given) | > 46
96 | CC(CN1C(C)CCCC1C)OC(=O)c1cccc(F)c1.Cl (stereo not given) | > 49.5

Row | Structure (SMILES) | solubility kinetic [µg/mL]
97 | CN(C)CCCn1c(=S)[nH]c2sc3c(c2c1=O)CCCC3 | > 48.5
98 | O=C(NCc1ccco1)c1cccc(C(F)(F)F)c1 | > 40.4
99 | CCOC(=O)C1CCN(C(=O)c2[nH]c3ccc(OC)cc3c2C)CC1 | 48.3 (≈ 140 µM)
100 | N#Cc1cccc(NC(=O)CCNC(=O)c2ccccc2Cl)c1 | > 49.2
101 | CC(C)C(=O)NCc1cc(-c2ccc(Cl)cc2)no1 | 3 (≈ 10.8 µM)
102 | Cc1coc(C)c1C(=O)Nc1ccc2ccccc2c1 | 2.5 (≈ 9.42 µM)
103 | CCOC(=O)c1c(C)[nH]c(C)c1C(=O)COC(=O)CCc1ccccc1 | > 53.6
104 | CCOC(=O)c1cccc(NC(=S)NC(=O)c2cccnc2)c1 | 8.1 (≈ 24.6 µM)
105 | Nc1cccc(-c2nc3ccc(C(=O)c4ccccc4)cc3[nH]2)c1 | 20.3 (≈ 64.8 µM)
106 | CS(=O)(=O)N(CCc1ccccc1)CC(=O)N1CCCC1 | > 46.6
107 | O=C1/C(=C/c2cccc([N+](=O)[O-])c2)CSc2ccc(Cl)cc21 | < 0.7
108 | COCCNC(=S)NC(=O)c1ccc(C(C)(C)C)cc1 | 14 (≈ 47.6 µM)
109 | COc1ccc(C)cc1NC(=O)c1ccc(OCc2c(C)noc2C)cc1 | 0.9 (≈ 2.46 µM)
110 | CCOc1ccc(NC(=S)N2CCCC2)cc1 | > 37.6
111 | Cc1ccc(S(=O)(=O)NCC(=O)OCC(=O)N2CC(C)OC(C)C2)cc1 (stereo not given) | > 57.7
112 | Cc1cc(C)c2nc(C)cc(Nc3ccc(C(=O)NCCO)cc3)c2c1 | 35.5 (≈ 102 µM)
113 | COc1ccc(NC(=O)c2ccccc2Oc2ccccc2)c(OC)c1 | < 0.7
114 | CCN1CCN(c2ccc(NC(=O)c3ccc(Br)o3)cc2)CC1 | > 56.7
115 | O=C(O)Cc1ccc(-n2cccc2)cc1 | > 30.2
116 | CCN(CC)CCNC(=O)/C(=N\O)c1ccccn1 | > 39.6
117 | O=C(O)c1ccc(CNC(=O)c2ccc3c(c2)OCCO3)cc1 | > 47
118 | O=c1cc(NC2CCCCC2)[nH]c(=O)[nH]1 | 13.1 (≈ 62.6 µM)
119 | CN(C)C(Cc1ccccc1)C(=O)c1c[nH]c2ccccc12.Cl (stereo not given) | > 49.3
120 | COc1ccc(C(C)=O)cc1COc1cccnc1[N+](=O)[O-] | 5.1 (≈ 16.9 µM)
